Measured values from ChEMBL document CHEMBL4765279, “Discovery of a novel series of imidazo[1',2':1,6]pyrido[2,3-d]pyrimidin derivatives as potent cyclin-dependent kinase 4/6 inhibitors” (Eur J Med Chem, 2020).

Assays:
[1] = molecular target: CDK4/Cyclin D3 (Homo sapiens, UniProt P11802); experiment: Inhibition of recombinant human full-length N-terminal GST-fused CDK4 (1 to 303 residues)/GST-tagged CyclinD3 (1 to 292 residues) expressed in baculovirus expression system using ULight-elF4E-binding protein 1 peptide as substrate measured after 30 mins by LANCE assay
[2] = molecular target: CDK6/Cyclin D3 (Homo sapiens, UniProt Q00534); experiment: Inhibition of human full-length N-terminal GST tagged CDK6 (1 to 326 residues)/GST-tagged cyclinD3 (1 to 292 residues) expressed in baculovirus expression system using ULight-elF4E-binding protein 1 peptide as substrate measured after 30 mins by LANCE assay
[3] = system: COLO 205; experiment: Antiproliferative activity against human COLO 205 cells assessed as cell growth inhibition measured after 4 to 6 days by celltiter-glo luminescent cell viability assay; format: functional, cell-based
[4] = system: U-87 MG; experiment: Antiproliferative activity against human U-87 MG cells assessed as cell growth inhibition measured after 4 to 6 days by celltiter-glo luminescent cell viability assay; format: functional, cell-based, U-87MG ATCC
[5] = system: COLO 205; experiment: Cell cycle arrest in human COLO 205 cells assessed as accumulation at G0/G1 phase at 200 nM measured after 24 hrs by propidium iodide staining based flow cytometry relative to control; format: functional
[6] = system: MDA-MB-468; experiment: Antiproliferative activity against human MDA-MB-468 cells assessed as cell growth inhibition measured after 4 to 6 days by celltiter-glo luminescent cell viability assay; format: functional, cell-based
[7] = Intrinsic clearance in human liver microsomes at 1 uM preincubated for 10 mins followed by NADPH addition and measured after 1 hr by LC-MS/MS analysis; format: ADME, Microsome; conditions: time 70 min, read-out: CLH
[8] = Intrinsic clearance in rat liver microsomes at 1 uM preincubated for 10 mins followed by NADPH addition and measured after 1 hr by LC-MS/MS analysis; format: ADME, Microsome; conditions: time 70 min, read-out: CLH
[9] = molecular target: T1, CYP1A2 (Homo sapiens, UniProt P05177); experiment: Inhibition of CYP1A2 in human liver microsomes at 10 uM measured after 20 mins in presence of NADPH by LC-MS/MS analysis relative to control; format: ADME
T1 sequence (P05177 whole entry): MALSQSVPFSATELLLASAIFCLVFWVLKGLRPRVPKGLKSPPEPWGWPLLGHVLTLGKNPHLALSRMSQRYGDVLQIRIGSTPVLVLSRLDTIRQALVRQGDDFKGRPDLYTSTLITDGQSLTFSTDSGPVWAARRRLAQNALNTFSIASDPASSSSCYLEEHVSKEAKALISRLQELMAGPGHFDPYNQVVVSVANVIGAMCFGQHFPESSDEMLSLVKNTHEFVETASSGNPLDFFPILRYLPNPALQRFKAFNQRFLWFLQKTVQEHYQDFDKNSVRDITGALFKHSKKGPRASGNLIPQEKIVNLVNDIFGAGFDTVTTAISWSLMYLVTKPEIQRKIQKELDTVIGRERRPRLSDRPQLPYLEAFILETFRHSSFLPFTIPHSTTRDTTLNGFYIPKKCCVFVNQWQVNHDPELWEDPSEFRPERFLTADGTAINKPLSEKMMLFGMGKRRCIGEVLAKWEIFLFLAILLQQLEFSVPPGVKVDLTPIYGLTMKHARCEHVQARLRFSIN

[10] = molecular target: CYP2C9 (Homo sapiens, UniProt P11712); experiment: Inhibition of CYP2C9 in human liver microsomes at 10 uM measured after 20 mins in presence of NADPH by LC-MS/MS analysis relative to control; format: ADME
[11] = molecular target: CYP2C19 (Homo sapiens, UniProt P33261); experiment: Inhibition of CYP2C19 in human liver microsomes at 10 uM measured after 20 mins in presence of NADPH by LC-MS/MS analysis relative to control; format: ADME
[12] = molecular target: CYP2D6 (Homo sapiens, UniProt P10635); experiment: Inhibition of CYP2D6 in human liver microsomes at 10 uM measured after 20 mins in presence of NADPH by LC-MS/MS analysis relative to control; format: ADME
[13] = molecular target: CYP3A4 (Homo sapiens, UniProt P08684); experiment: Inhibition of CYP3A4 in human liver microsomes at 10 uM measured after 20 mins in presence of NADPH by LC-MS/MS analysis relative to control; format: ADME
[14] = molecular target: T2, Cytochrome P450 1A2 (Homo sapiens, UniProt P05177); experiment: Time-dependent inhibition of CYP1A2 in human liver microsomes at 10 uM in presence of NADPH by LC-MS/MS analysis; format: ADME
T2 sequence (P05177 whole entry): T1 sequence (P05177 whole entry)

[15] = molecular target: Cytochrome P450 2C9 (Homo sapiens, UniProt P11712); experiment: Time-dependent inhibition of CYP2C9 in human liver microsomes at 10 uM in presence of NADPH by LC-MS/MS analysis; format: ADME
[16] = molecular target: Cytochrome P450 2C19 (Homo sapiens, UniProt P33261); experiment: Time-dependent inhibition of CYP2C19 in human liver microsomes at 10 uM in presence of NADPH by LC-MS/MS analysis; format: ADME
[17] = molecular target: Cytochrome P450 2D6 (Homo sapiens, UniProt P10635); experiment: Time-dependent inhibition of CYP2D6 in human liver microsomes at 10 uM in presence of NADPH by LC-MS/MS analysis; format: ADME
[18] = molecular target: Cytochrome P450 3A4 (Homo sapiens, UniProt P08684); experiment: Time-dependent inhibition of CYP3A4 in human liver microsomes at 10 uM in presence of NADPH by LC-MS/MS analysis; format: ADME
[19] = AUC (0 to t) in BALB/c mouse at 3 mg/kg, iv by LC-MS/MS analysis; format: ADME, organism-based; design: dose 3 mg/kg; conditions: in vivo
[20] = Half life in BALB/c mouse at 3 mg/kg, iv by LC-MS/MS analysis; format: ADME, organism-based; conditions: in vivo
[21] = Volume of distribution at steady state in BALB/c mouse at 3 mg/kg, iv by LC-MS/MS analysis; format: ADME, organism-based; conditions: in vivo, read-out: Vdss
[22] = Cmax in BALB/c mouse at 10 mg/kg, po by LC-MS/MS analysis; format: ADME, organism-based; design: route oral, dose 10 mg/kg; conditions: in vivo
[23] = AUC (0 to t) in BALB/c mouse at 10 mg/kg, po by LC-MS/MS analysis; format: ADME, organism-based; design: dose 10 mg/kg; conditions: in vivo
[24] = Half life in BALB/c mouse at 10 mg/kg, po by LC-MS/MS analysis; format: ADME, organism-based; conditions: in vivo
[25] = Oral bioavailability in BALB/c mouse at 10 mg/kg by LC-MS/MS analysis; format: ADME, organism-based; conditions: in vivo
[26] = AUC (0 to t) in Sprague-Dawley rat at 3 mg/kg, iv by LC-MS/MS analysis; format: ADME, organism-based; design: dose 3 mg/kg; conditions: in vivo
[27] = Half life in Sprague-Dawley rat at 3 mg/kg, iv by LC-MS/MS analysis; format: ADME, organism-based; conditions: in vivo
[28] = Volume of distribution at steady state in Sprague-Dawley rat at 3 mg/kg, iv by LC-MS/MS analysis; format: ADME, organism-based; conditions: in vivo, read-out: Vdss
[29] = Cmax in Sprague-Dawley rat at 6 mg/kg, po by LC-MS/MS analysis; format: ADME, organism-based; design: route oral, dose 6 mg/kg; conditions: in vivo
[30] = AUC (0 to t) in Sprague-Dawley rat at 6 mg/kg, po by LC-MS/MS analysis; format: ADME, organism-based; design: dose 6 mg/kg; conditions: in vivo
[31] = Half life in Sprague-Dawley rat at 6 mg/kg, po by LC-MS/MS analysis; format: ADME, organism-based; conditions: in vivo
[32] = Oral bioavailability in Sprague-Dawley rat at 6 mg/kg by LC-MS/MS analysis; format: ADME, organism-based; conditions: in vivo
[33] = system: U-87 MG; experiment: Antitumor activity against human U-87 MG cells xenografted in BALB/c mouse assessed as tumor growth inhibition at 10 mg/kg, po qd for 16 days relative to control; format: functional, U-87MG ATCC; conditions: 384 h, time 16 day, read-out: TGI
[34] = system: U-87 MG; experiment: Antitumor activity against human U-87 MG cells xenografted in BALB/c mouse assessed as tumor growth at 10 mg/kg, po qd for 16 days relative to control; format: functional, U-87MG ATCC; conditions: time 16 day
[35] = Toxicity in human U-87 MG cells xenografted BALB/c mouse assessed as body weight loss at 10 mg/kg, po qd for 16 days relative to control; format: organism-based; conditions: in vivo, 384 h, time 16 day
[36] = molecular target: Cyclin-dependent kinase 7/ cyclin H (Homo sapiens, UniProt P50613); experiment: Inhibition of CDK7/cyclin H (unknown origin); format: protein-complex assay
[37] = molecular target: CDK9/cyclin T1 (Homo sapiens, UniProt P50750)
Description: Inhibition of CDK9/cyclin T1 (unknown origin)

[38] = molecular target: Cyclin-dependent kinase 1/cyclin B1 (Homo sapiens, UniProt P06493)
Description: Inhibition of CDK1/cyclin B (unknown origin)

[39] = molecular target: CDK2/Cyclin A2 (Homo sapiens, UniProt P24941)
Description: Inhibition of CDK2/cyclin A2 (unknown origin)

CDK6/Cyclin D3, sequence (Q00534 whole entry, looked up, the tested form may be a part): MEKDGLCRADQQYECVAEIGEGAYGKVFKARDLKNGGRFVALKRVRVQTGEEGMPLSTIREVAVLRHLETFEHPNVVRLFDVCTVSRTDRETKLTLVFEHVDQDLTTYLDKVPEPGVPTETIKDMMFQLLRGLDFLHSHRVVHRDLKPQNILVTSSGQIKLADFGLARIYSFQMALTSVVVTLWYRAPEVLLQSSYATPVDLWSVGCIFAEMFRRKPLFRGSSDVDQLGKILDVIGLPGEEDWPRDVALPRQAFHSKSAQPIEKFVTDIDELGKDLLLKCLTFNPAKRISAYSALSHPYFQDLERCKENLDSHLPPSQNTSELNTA
CDK4/Cyclin D3, sequence (P11802 whole entry, the tested form may be a part): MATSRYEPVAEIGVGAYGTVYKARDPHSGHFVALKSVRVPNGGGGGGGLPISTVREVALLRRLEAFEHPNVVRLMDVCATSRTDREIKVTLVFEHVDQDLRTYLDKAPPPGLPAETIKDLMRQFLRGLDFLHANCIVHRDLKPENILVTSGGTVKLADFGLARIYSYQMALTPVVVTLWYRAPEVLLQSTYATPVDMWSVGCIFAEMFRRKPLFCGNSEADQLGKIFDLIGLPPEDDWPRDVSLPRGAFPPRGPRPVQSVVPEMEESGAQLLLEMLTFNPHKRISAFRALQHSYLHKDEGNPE
CDK4/Cyclin D3, sequence (P30281 whole entry, further chain, the tested form may be a part): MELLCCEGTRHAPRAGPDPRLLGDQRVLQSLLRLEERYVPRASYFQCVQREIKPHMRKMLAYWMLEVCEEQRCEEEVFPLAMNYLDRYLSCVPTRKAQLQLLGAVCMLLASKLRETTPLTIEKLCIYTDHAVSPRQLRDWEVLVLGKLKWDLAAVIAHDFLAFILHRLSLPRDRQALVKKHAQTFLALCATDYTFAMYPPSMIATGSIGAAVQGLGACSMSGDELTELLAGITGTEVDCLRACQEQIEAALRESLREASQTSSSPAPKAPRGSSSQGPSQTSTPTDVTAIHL
CDK9/cyclin T1, sequence (O60563 whole entry): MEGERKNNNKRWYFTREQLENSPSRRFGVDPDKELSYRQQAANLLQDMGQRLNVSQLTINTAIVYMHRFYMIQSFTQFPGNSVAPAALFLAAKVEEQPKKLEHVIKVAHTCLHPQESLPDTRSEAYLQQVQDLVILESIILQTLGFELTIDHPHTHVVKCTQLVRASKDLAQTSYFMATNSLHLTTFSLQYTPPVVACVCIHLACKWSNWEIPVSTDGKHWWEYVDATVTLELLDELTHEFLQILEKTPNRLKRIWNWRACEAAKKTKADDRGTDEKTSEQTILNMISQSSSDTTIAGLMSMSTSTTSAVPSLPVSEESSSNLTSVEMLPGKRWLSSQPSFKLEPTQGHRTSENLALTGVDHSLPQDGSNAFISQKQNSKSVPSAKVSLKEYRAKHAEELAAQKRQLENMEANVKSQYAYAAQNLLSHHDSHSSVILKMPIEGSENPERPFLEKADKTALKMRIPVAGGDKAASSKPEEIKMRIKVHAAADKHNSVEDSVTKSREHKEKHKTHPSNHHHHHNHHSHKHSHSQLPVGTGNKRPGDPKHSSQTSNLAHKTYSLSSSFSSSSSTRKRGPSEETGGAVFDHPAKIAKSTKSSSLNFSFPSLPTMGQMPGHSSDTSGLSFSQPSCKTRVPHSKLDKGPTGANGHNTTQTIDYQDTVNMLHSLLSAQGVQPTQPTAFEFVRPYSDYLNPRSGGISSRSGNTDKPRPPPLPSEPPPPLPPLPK
CDK9/cyclin T1, sequence (P50750 whole entry): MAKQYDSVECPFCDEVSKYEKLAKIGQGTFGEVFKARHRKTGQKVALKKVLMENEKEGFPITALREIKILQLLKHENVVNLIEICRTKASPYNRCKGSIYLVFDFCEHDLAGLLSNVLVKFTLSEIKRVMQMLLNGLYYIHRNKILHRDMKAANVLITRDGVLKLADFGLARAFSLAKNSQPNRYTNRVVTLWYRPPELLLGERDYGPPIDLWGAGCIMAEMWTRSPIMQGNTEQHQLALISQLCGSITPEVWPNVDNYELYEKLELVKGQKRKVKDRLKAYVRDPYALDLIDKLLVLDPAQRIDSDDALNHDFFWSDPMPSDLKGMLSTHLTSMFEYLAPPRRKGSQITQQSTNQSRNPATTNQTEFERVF
Cytochrome P450 2C19, sequence (P33261 whole entry): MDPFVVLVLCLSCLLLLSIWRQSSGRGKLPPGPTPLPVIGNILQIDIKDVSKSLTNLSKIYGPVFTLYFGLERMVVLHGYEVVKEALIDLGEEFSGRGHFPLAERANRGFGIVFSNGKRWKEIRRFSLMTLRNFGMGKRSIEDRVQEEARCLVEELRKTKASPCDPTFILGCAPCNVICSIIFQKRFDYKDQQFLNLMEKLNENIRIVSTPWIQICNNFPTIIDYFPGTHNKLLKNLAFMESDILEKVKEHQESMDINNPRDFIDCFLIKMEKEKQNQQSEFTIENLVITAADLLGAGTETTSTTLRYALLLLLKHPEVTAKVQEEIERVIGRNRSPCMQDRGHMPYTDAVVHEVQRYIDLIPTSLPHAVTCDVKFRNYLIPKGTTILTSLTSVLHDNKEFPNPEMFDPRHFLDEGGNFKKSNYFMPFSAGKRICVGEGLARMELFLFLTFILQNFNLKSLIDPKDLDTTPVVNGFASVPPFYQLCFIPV
CYP2C19, sequence (P33261 whole entry): as above
CYP3A4, sequence (P08684 whole entry): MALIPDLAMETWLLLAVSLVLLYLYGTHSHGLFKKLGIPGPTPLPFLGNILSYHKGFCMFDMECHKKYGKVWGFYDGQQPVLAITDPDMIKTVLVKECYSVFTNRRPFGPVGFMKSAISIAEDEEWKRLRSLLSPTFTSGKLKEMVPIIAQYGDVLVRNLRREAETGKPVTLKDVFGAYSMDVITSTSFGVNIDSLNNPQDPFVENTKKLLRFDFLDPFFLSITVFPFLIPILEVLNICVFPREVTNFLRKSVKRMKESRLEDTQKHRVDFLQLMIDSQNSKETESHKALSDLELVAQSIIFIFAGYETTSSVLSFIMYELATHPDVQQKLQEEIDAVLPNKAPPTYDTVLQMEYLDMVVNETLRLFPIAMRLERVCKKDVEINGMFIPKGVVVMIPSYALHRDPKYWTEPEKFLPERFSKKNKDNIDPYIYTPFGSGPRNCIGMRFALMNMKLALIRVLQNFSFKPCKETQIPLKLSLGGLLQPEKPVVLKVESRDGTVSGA
Cytochrome P450 3A4, sequence (P08684 whole entry): as above
CYP2C9, sequence (P11712 whole entry): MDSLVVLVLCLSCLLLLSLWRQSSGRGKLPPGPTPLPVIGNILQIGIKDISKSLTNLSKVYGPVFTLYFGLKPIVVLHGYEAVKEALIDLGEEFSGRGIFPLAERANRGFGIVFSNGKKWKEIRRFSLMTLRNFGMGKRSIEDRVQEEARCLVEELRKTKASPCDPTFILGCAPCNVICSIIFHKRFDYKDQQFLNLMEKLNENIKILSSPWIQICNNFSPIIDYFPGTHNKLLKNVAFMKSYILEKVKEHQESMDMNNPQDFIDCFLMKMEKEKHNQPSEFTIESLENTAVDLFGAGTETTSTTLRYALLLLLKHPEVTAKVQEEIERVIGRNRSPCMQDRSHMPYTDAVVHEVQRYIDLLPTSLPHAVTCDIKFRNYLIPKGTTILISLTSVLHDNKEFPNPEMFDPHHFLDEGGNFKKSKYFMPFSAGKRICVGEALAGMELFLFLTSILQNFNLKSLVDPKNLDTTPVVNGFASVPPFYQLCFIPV
Cytochrome P450 2C9, sequence (P11712 whole entry): as above

CC(=O)c1c(C)c2cnc(Nc3ccc(CN4CCNCC4)cn3)nc2n2cc(C(C)C)nc12 gave an IC50 [1] of 2.2 nM, an IC50 [2] of 2.5 nM and an IC50 [3] of 356 nM. It also gave an IC50 [4] of 165 nM.

For Cc1cn2c(n1)c(C#N)c(C)c1cnc(Nc3ccc(N4CCNCC4)cc3)nc12, the IC50 [1] was 26.5 nM and the IC50 [2] was 33.6 nM.

In the case of Cc1c(C#N)c2nc(C(C)C)cn2c2nc(Nc3ccc(N4CCNCC4)cc3)ncc12, the IC50 [1] is reported as 10.3 nM, the IC50 [2] is reported as 9 nM and the IC50 [4] is reported as 585 nM.

With Cc1cn2c(n1)c(C#N)c(C)c1cnc(Nc3ccccc3)nc12 the IC50 [1] was 98.9 nM and the IC50 [2] was 112 nM.

Work on CC(=O)c1c(C)c2cnc(Nc3ccc(N4CCC(N(C)C)C4)cn3)nc2n2cc(C(C)C)nc12 (stereo not drawn) yielded an IC50 [1] of 4.5 nM, an IC50 [2] of 4.3 nM and an IC50 [3] of 1420 nM. The IC50 [4] was 536 nM.

With CC(=O)c1c(C)c2cnc(Nc3ccc(N4CCNCC4)cc3)nc2n2cc(C3CCCC3)nc12 the IC50 [1] was 4.7 nM, the IC50 [2] was 5.9 nM and the IC50 [3] was 73.4 nM. It also gave an IC50 [4] of 64.8 nM.

With CC(=O)c1c(C)c2cnc(Nc3ccc(N4CCNCC4)cc3)nc2n2cc(C(C)(C)C)nc12 the Activity [5] was 95.4%, the IC50 [1] was 2.7 nM and the IC50 [2] was 4.8 nM. The IC50 [3] was 256 nM, the IC50 [4] was 49.3 nM and the IC50 [6] was 984 nM. The microsomal CLint at 1 µM [7] was 6 µL/min/mg, the microsomal CLint at 1 µM [8] was 6 µL/min/mg and the inhibition at […], 10 µM [9] was 17%. For the same molecule, the inhibition at […], 10 µM [10] was 12%, the inhibition at […], 10 µM [11] was 19% and the inhibition at […], 10 µM [12] was 7%. The inhibition at […], 10 µM [13] was 18%, the TDI [14] was “Active” and the TDI [15] was “Not Active”. For the same molecule, the TDI [16] was “Not Active”, the TDI [17] was “Not Active” and the TDI [18] was “Not Active”. It also gave an AUCt [19] of 440 ng·h/mL, a half-life [20] of 4.64 h and a Vd [21] of 33.7 L/kg. The Cmax [22] was 570 ng/mL, the AUC(0-t) [23] was 775 ng·h/mL and the half-life [24] was 3.68 h. For the same molecule, the bioavailability [25] was 53.1%, the AUCt [26] was 1334 ng·h/mL and the half-life [27] was 5.57 h. The Vd [28] was 35.7 L/kg, the Cmax [29] was 170 ng/mL and the AUC(0-t) [30] was 1780 ng·h/mL. It also gave a half-life [31] of 4.44 h, a bioavailability [32] of 66.9% and an inhibition in vivo at 10 mg/kg [33] of 70%. It also gave a T/C [34] of 37%, an Activity [35] of less than 20% and an IC50 [36] of 204 nM. It also gave an IC50 [37] of 221 nM, an IC50 [38] of 2080 nM and an IC50 [39] of 60.3 nM.

CC(=O)c1c(C)c2cnc(Nc3ccc4c(n3)CCNC4)nc2n2cc(C(C)C)nc12 showed an IC50 [1] of 9.9 nM, an IC50 [2] of 23.1 nM and an IC50 [3] of 5740 nM. It also gave an IC50 [4] of 3720 nM.

With CC(=O)c1c(C)c2cnc(Nc3ccc(N4CC5(CCOCC5)C4)cn3)nc2n2cc(C(C)C)nc12 the IC50 [1] was 9.9 nM, the IC50 [2] was 25.7 nM and the IC50 [3] was 534 nM. It also gave an IC50 [4] of 539 nM.

Cc1cn2c(n1)c(C#N)c(C)c1cnc(Nc3ccc(Cl)cc3)nc12 showed an IC50 [1] of 271 nM and an IC50 [2] of 280 nM.

Molecule CNCCN1CCc2nc(Nc3ncc4c(C)c(C(C)=O)c5nc(C(C)C)cn5c4n3)ccc2C1 has an IC50 [1] of 2.7 nM, an IC50 [2] of 7.1 nM and an IC50 [3] of 639 nM. The IC50 [4] was 184 nM.

Work on CC(=O)c1c(C)c2cnc(Nc3ccc(N4CCNCC4)cc3)nc2n2cc(C3CCCCC3)nc12 yielded an IC50 [1] of 18.9 nM, an IC50 [2] of 22.2 nM and an IC50 [3] of 121 nM. It also gave an IC50 [4] of 122 nM.

CCN1CCN(Cc2ccc(Nc3ncc(F)c(-c4cc(F)c5nc(C)n(C(C)C)c5c4)n3)nc2)CC1 [ABEMACICLIB] gave an Activity [5] of 95.3% and an IC50 [6] of 1140 nM.
